Measured values reported in patent publication US20180312493A1, “Antibiotic Compounds, Pharmaceutical Formulations Thereof And Methods And Uses Therefor” (Simon Fraser University, priority 2015, published 2018).
pIC50: −log10 of the molar value. Converted amounts (≈) assume the structure as drawn. Like-named read-outs stand apart in the source and are kept apart here.

Experiments:
K. pneumoniae (C238) = assay: In vitro susceptibility, broth microdilution (MIC); format: cell-based; conditions: Klebsiella pneumoniae, read-out: Antimicrobial activity (MIC) K. pneumoniae
How it was run: (§1)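 CLSI 2-fold serial broth microdilution; K. pneumoniae C238 grown in L-broth, S. aureus ATCC 29213 in Mueller Hinton broth, plates incubated 18–24 h at 37 °C. MIC taken as lowest concentration giving complete growth inhibition by OD600 versus compound-free wells, background-subtracted.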

S. aureus (ATCC29213) = assay: In vitro susceptibility, broth microdilution (MIC); format: cell-based; conditions: Staphylococcus aureus; S. aureus ATCC29213; 18-24 h, 37 C; read-out: Antimicrobial activity (MIC) S. aureus ATCC29213
How it was run: as §1

MRSA MW2 (USA400) = assay: In vitro susceptibility, broth microdilution (MIC); format: cell-based, methicillin resistant S. aureus; conditions: Staphylococcus aureus; MRSA MW2 (USA400); read-out: Antimicrobial activity (MIC) MSRA USA400
How it was run: (§2)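 MIC determined by CLSI 2-fold broth microdilution in cation-adjusted Mueller–Hinton broth at ~2.5×10^5 CFU/ml, final compound 0.031–64 μg/ml, 18–24 h at 37 °C. MIC is the lowest concentration giving complete growth inhibition by background-corrected OD600 versus compound-free wells; duplicate or triplicate wells, replicated at least twice.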

[1] = tested on: A. baumannii (ATCC 17978); assay: In vitro susceptibility, broth microdilution (MIC); format: cell-based; conditions: Acinetobacter baumannii, ATCC17978; A. baumannii ATCC 17978 (values marked *); read-out: Antimicrobial activity (MIC) A. baumannii
How it was run: as §2

MRSA Pyk = target: T1, MRSA Pyk (Staphylococcus aureus, UniProt Q6GG09); assay: MRSA pyruvate kinase (PK) activity, continuous LDH-coupled assay; format: biochemical, methicillin resistant S. aureus (MRSA252)
T1 construct: made in house; host or cells: E. coli BL-21 (DE3)
T1 sequence (Q6GG09 whole entry): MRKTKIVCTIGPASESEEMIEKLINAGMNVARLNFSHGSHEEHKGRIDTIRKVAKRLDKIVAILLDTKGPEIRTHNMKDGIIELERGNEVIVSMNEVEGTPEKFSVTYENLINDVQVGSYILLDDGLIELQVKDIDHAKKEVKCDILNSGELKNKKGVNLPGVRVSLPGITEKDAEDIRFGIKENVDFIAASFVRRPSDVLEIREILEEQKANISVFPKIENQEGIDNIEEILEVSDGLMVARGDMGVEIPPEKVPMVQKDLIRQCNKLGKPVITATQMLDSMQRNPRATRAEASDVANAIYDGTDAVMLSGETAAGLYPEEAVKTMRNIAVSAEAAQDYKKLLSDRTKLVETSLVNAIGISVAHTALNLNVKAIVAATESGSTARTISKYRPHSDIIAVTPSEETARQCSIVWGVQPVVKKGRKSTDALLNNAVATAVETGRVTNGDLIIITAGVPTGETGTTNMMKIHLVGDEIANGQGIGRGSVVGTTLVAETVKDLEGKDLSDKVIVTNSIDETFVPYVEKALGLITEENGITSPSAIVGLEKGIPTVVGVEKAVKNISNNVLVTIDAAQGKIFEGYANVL
How it was run: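 His-tagged MRSA PK (strain Sanger 252) and human PK isoforms expressed in E. coli BL-21 (DE3) and Ni-NTA purified, used at 15 nM in an LDH-coupled assay following NADH oxidation at 340 nm, 30° C, up to 5 min, ≤1% DMSO. IC50 from four-parameter variable-slope fit; Ki with PEP 2-20 mM, ADP fixed 2 mM, inhibitor 0-400 nM.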

[2] = tested on: A. baumannii (ATCC 19606); assay: In vitro susceptibility, broth microdilution (MIC); format: cell-based; conditions: Acinetobacter baumannii, ATCC19606; A. baumannii ATCC 19606 (values without asterisk); read-out: Antimicrobial activity (MIC) A. baumannii
How it was run: as §2

VRE#2 (2010A) = assay: In vitro susceptibility, broth microdilution (MIC); format: cell-based, vancomycin resistant Enterococci; conditions: VRE#2 (2010A); read-out: Antimicrobial activity (MIC) VRE#2
How it was run: as §2

MRSA (ATCC BAA-1762) = assay: In vitro susceptibility, broth microdilution (MIC); format: cell-based, methicillin resistant S. aureus; conditions: Staphylococcus aureus; MRSA ATCC BAA-1762; read-out: Antimicrobial activity (MIC) MRSA ATCC BAA1762
How it was run: as §2

Compound	MIC (K. pneumoniae (C238); K. pneumoniae (C238))	MIC (S. aureus (ATCC29213))	MIC (MRSA MW2 (USA400))	MIC [1]	pIC50 (MRSA Pyk)	MIC [2]	MIC (VRE#2 (2010A))	MIC (K. pneumoniae (C238))	MIC (MRSA (ATCC BAA-1762))
Oc1cc(/C=C/c2cc3ccc(Br)cc3[nH]2)ccc1Cl [Compound 11, (E)-5-(2-(6-bromo-1H-indol-2-yl)vinyl)-2-chlorophenol]	4 mg/L (≈ 11.5 µM)	2 mg/L (≈ 5.74 µM)	2 mg/L (≈ 5.74 µM)	> 64 mg/L					
CN(C)CCOc1cc(/C=C/c2cc3ccc(Br)cc3[nH]2)ccc1Cl [Compound 12, (E)-2-(5-(2-(6-bromo-1H-indol-2-yl)vinyl)-2-chlorophenoxy)-N,N-dimethylethanamine]	4 mg/L (≈ 9.53 µM)	4 mg/L (≈ 9.53 µM)	4 mg/L (≈ 9.53 µM)		6.00 to 7.00	16 mg/L (≈ 38.1 µM)			
O=C(NCCC1CCC(O)CC1)c1c(/C=C/c2ccc(Cl)cc2)[nH]c2cc(Br)ccc12 (centres unmarked) [Compound 41, (E)-6-Bromo-2-(4-chlorostyryl)-N-(2-(4-hydroxycyclohexyl)ethyl)-1H-indole-3-carboxamide]	> 64 mg/L	> 64 mg/L	> 64 mg/L		> 7.00		> 64 mg/L		
CN1CCN(CCCNC(=O)c2c(/C=C/c3ccc(Cl)cc3)[nH]c3cc(Br)ccc23)CC1 [Compound 43, (E)-6-Bromo-2-(4-chlorostyryl)-N-(3-(4-methylpiperazin-1-yl)propyl)-1 H-indole-3-carboxamide]	32 mg/L (≈ 62 µM)	32 mg/L (≈ 62 µM)	32 mg/L (≈ 62 µM)		> 7.00		16 mg/L (≈ 31 µM)		
CN1CCN(CCCCNC(=O)c2c(/C=C/c3ccc(Cl)cc3)[nH]c3cc(Br)ccc23)CC1 [Compound 44, (E)-6-Bromo-2-(4-chlorostyryl)-N-(4-(4-methylpiperazin-1-yl)butyl)-1 H-indole-3-carboxamide]	32 mg/L (≈ 60.4 µM)	32 mg/L (≈ 60.4 µM)	32 mg/L (≈ 60.4 µM)		6.00 to 7.00		16 mg/L (≈ 30.2 µM)		
CN1CCN(CCNC(=O)c2c(-c3cc4cc(Cl)ccc4[nH]3)[nH]c3cc(Br)ccc23)CC1 [Compound 72, 6-Bromo-5′-chloro-N-(2-(4-methylpiperazin-1-yl)ethyl)-1H,1′H-[2,2′-biindole]-3-carboxamide]	8 mg/L (≈ 15.5 µM)	8 mg/L (≈ 15.5 µM)		> 64 mg/L	> 7.00		8 mg/L (≈ 15.5 µM)		
CN(C)CCc1c(-c2cc3cc(Cl)ccc3[nH]2)[nH]c2cc(Br)ccc12 [Compound 77, 2-(6-Bromo-5′-chloro-1H,1′H-[2,2′-biindol]-3-yl)-N,N-dimethylethan-1-amine]		4 mg/L (≈ 9.6 µM)	4 mg/L (≈ 9.6 µM)		> 7.00			4 mg/L (≈ 9.6 µM)	
CN(C)CCNC(=O)c1c(NC(=O)c2ccc(Cl)cc2)[nH]c2cc(Br)ccc12 [Compound 84, 6-Bromo-2-(4-chlorobenzamido)-N-(2-(dimethylamino)ethyl)-1H-indole-3-carboxamide]	16 mg/L (≈ 34.5 µM)	64 mg/L (≈ 138 µM)	> 64 mg/L						
COC(=O)C(=O)c1c(/C=C/c2ccc(Cl)cc2)[nH]c2cc(Br)ccc12 [Compound 86, (E)-Methyl 2-(6-bromo-2-(4-chlorostyryl)-1H-indol-3-yl)-2-oxoacetate]	> 64 mg/L	64 mg/L (≈ 153 µM)	64 mg/L (≈ 153 µM)		> 7.00		64 mg/L (≈ 153 µM)		
CNC(=O)C(=O)c1c(/C=C/c2ccc(Cl)cc2)[nH]c2cc(Br)ccc12 [Compound 87, (E)-2-(6-bromo-2-(4-chlorostyryl)-1H-indol-3-yl)-N-methyl-2-oxoacetamide]	> 64 mg/L	> 64 mg/L	> 64 mg/L		> 7.00		> 64 mg/L		
O=C(Nc1c(/C=C/c2ccc(Cl)cc2)[nH]c2cc(Br)ccc12)C(F)(F)F [Compound 93, (E)-N-(6-bromo-2-(4-chlorostyryl)-1H-indol-3-yl)-2,2,2-trifluoroacetamide]		32 mg/L (≈ 72.1 µM)	> 64 mg/L		> 7.00		64 mg/L (≈ 144 µM)	> 64 mg/L	
CC(=O)Nc1c(/C=C/c2ccc(Cl)cc2)[nH]c2cc(Br)ccc12 [Compound 94, (E)-N-(6-bromo-2-(4-chlorostyryl)-1H-indol-3-yl)acetamide]	> 64 mg/L	32 mg/L (≈ 82.1 µM)	> 64 mg/L		6.00 to 7.00		> 64 mg/L		
O=C(CO)Nc1c(/C=C/c2ccc(Cl)cc2)[nH]c2cc(Br)ccc12 [Compound 95, (E)-N-(6-bromo-2-(4-chlorostyryl)-1H-indol-3-yl)-2-hydroxyacetamide]	64 mg/L (≈ 158 µM)	32 mg/L (≈ 78.9 µM)	64 mg/L (≈ 158 µM)		6.00 to 7.00		64 mg/L (≈ 158 µM)		
CC(=O)Nc1c(CCc2ccc(Cl)cc2)[nH]c2cc(Br)ccc12 [Compound 96, N-(6-Bromo-2-(4-chlorophenethyl)-1H-indol-3-yl)acetamide]	> 64 mg/L	64 mg/L (≈ 163 µM)	> 64 mg/L		< 6.00		> 64 mg/L		
O=S(=O)(Nc1nc2cc(Br)ccc2s1)c1ccc(Cl)cc1 [Compound 101, N-(5-bromobenzo[d]thiazol-2-yl)-4-chlorobenzenesulfonamide]	32 mg/L (≈ 79.3 µM)	8 mg/L (≈ 19.8 µM)	> 64 mg/L						
CN1CCN(CCNC(=O)CCCC(=O)c2c(-c3cc4cc(Cl)ccc4[nH]3)[nH]c3cc(Br)ccc23)CC1 [Compound 106, 5-(6-bromo-5′-chloro-1H,1′H-[2,2′-biindol]-3-yl)-N-(2-(4-methylpiperazin-1-yl)ethyl)-5-oxopentanamide]	8 mg/L (≈ 13.7 µM)	8 mg/L (≈ 13.7 µM)	8 mg/L (≈ 13.7 µM)		> 7.00	> 64 mg/L	8 mg/L (≈ 13.7 µM)		
CN(C)CCNC(=O)CCCC(=O)c1c(-c2cc3cc(Cl)ccc3[nH]2)[nH]c2cc(Br)ccc12 [Compound 107, 5-(6-bromo-5′-chloro-1H,1′H-[2,2′-biindol]-3-yl)-N-(2-(dimethylamino)ethyl)-5-oxopentanamide]	4 mg/L (≈ 7.55 µM)	4 mg/L (≈ 7.55 µM)	4 mg/L (≈ 7.55 µM)		> 7.00		4 mg/L (≈ 7.55 µM)		
O=C(O)CCCC(=O)c1c(-c2cc3cc(Cl)ccc3[nH]2)[nH]c2cc(-c3cc4cc(Cl)ccc4[nH]3)ccc12 [Compound 108, 5-(5,5″-dichloro-1H,1′H,1″H-[2,2′:6′,2″-terindol]-3′-yl)-5-oxopentanoic Acid]	2 mg/L (≈ 3.77 µM)	1 mg/L (≈ 1.89 µM)	2 mg/L (≈ 3.77 µM)		< 6.00		2 mg/L (≈ 3.77 µM)		
Clc1ccc(-c2cc3[nH]c4cc(Br)ccc4c3nc2-c2ccccc2)cc1 [Compound 112, 7-bromo-3-(4-chlorophenyl)-2-phenyl-5H-pyrido[3,2-b]indole]	> 64 mg/L	32 mg/L (≈ 73.8 µM)		> 64 mg/L	6.00 to 7.00		> 64 mg/L		
CC(C)c1nc2c(cc1-c1ccc(Cl)cc1)[nH]c1cc(Br)ccc12 [Compound 114, 7-bromo-3-(4-chlorophenyl)-2-isopropyl-5H-pyrido[3,2-b]indole]	8 mg/L (≈ 20 µM)	32 mg/L (≈ 80.1 µM)	8 mg/L (≈ 20 µM)		6.00 to 7.00		4 mg/L (≈ 10 µM)		
CN(C)CCc1c(-c2nc3cc(Cl)c(Cl)cc3[nH]2)[nH]c2cc(Br)ccc12 [Compound 202, 2-(6-Bromo-2-(5,6-dichloro-1H-benzo[d]imidazol-2-yl)-1H-indol-3-yl)-N,N-dimethylethan-1-amine]		4 mg/L (≈ 8.85 µM)		> 64 mg/L	> 7.00		4 mg/L (≈ 8.85 µM)		4 mg/L (≈ 8.85 µM)
O=C(O)CCNC(=O)c1c(-c2cc3cc(Cl)ccc3[nH]2)[nH]c2cc(Br)ccc12 [Compound 205, 3-(6-Bromo-5′-chloro-1H,1′H-[2,2′-biindole]-3-carboxamido)propanoic Acid]		32 mg/L (≈ 69.5 µM)	32 mg/L (≈ 69.5 µM)	> 64 mg/L	> 7.00				64 mg/L (≈ 139 µM)
Clc1cc2nc(-c3cc4ccc(Br)cc4[nH]3)[nH]c2cc1Cl [Compound 207, 2-(6-Bromo-1H-indol-2-yl)-5,6-dichloro-1H-benzo[d]imidazole]	16 mg/L (≈ 42 µM)	0.5 mg/L (≈ 1.31 µM)	1 mg/L (≈ 2.62 µM)		> 7.00	> 64 mg/L	32 mg/L (≈ 84 µM)		
Clc1ccc2[nH]c(-c3cc4ccc(Br)cc4[nH]3)nc2n1 [Compound 208, 2-(6-Bromo-1H-indol-2-yl)-5-chloro-1H-imidazo[4,5-b]pyridine]		8 mg/L (≈ 23 µM)		> 64 mg/L	< 6.00		16 mg/L (≈ 46 µM)		8 mg/L (≈ 23 µM)
